# Patent US20190211099A1, “METHODS AND COMPOSITIONS FOR TREATING CANCER WITH SIGLEC-9 ACTIVITY MODULATORS” (KING'S COLLEGE LONDON, priority 2016, published 2019)
# Tested on: recombinant Siglecs 3, 7, 9 and 10
# Experiment: Binding of biotinylated MUC1 glycoforms to plate-bound recombinant Siglec fusion proteins
# Set-up: species or system human
# Conditions: 2 μg/ml biotinylated MUC1 glycoform, 4 hours; panel Siglec 3, 5, 7, 8, 9 and 10
# Procedure: Binding was enhanced when cells were pre-treated with 0.04 U/ml neuraminidase for 30 minutes at 37° C. in PBS (FIG. 3C), which removes competing cis-binding sialic acid sites from the surface of the cells. As this pattern is characteristic of binding to Siglecs (Macauley et al. (2014) NAT. REV. IMMUNOL. 14: 653-666), MUC1-ST binding to Siglecs was tested as follows: mouse anti human IgG was bound to plastic O/N and the plate was blocked using 1% BSA in PBS. Recombinant human Siglec (3, 5, 7, 8, 9 and 10) fusion proteins were added at 2 μg/mL for 2 hours. After incubation with 2 μg/ml biotinylated MUC1 glycoforms for 4 hours, O.D. was measured after the addition of streptavidin-HRP and substrate. […] Although Siglecs 3, 7 and 9 are expressed by monocytes and macrophages (FIG. 3D), a blocking antibody to Siglec-9 inhibited 80-95% of the MUC1-ST binding to these cells (FIGS. 2G-2I, 3E, and 5) indicating this is the dominant binding Siglec. […] Importantly, Siglec-9 bound to the breast cancer cell line T47D that expresses MUC1 carrying sialylated Core-1 glycans (FIG. 2J). Finally, isolated monocytes were bound to 10 μg/mL biotinylated MUC1-ST or 10 μg/mL biotinylated polyacrylamide carrying the ST glycan (PAA-ST; Glycotech).
substance,measurement,value
"NeuAcα2,3Galβ1-3GalNAc linked via a Ser/Thr of MUC1 [MUC1-ST]",binding to recombinant Siglec fusion proteins,bound
